In patent US10167262B2, “Herbicidal substituted 3-arylpyrazoles” (FMC CORPORATION, priority 2014, dated 2019):

Key:
Assay type in all cases: in vivo
[1] = tested on: pigweed (Amaranthus retroflexus); test: Test A pre-/postemergence greenhouse herbicide test, visual injury rating 0-100
Summary of the method: (§1)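 Seeds planted in loam-sand blend; preemergence directed soil spray and postemergence spray at 2–10 cm, one- to two-leaf stage, compounds formulated in non-phytotoxic solvent with surfactant. After about 10 days in greenhouse, injury rated visually against untreated controls, 0 (no effect) to 100 (complete control).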

[2] = tested on: corn (Zea mays); test: as above
Summary of the method: as §1

[3] = tested on: wheat (Triticum aestivum); test: as above
Summary of the method: as §1

[4] = tested on: barnyardgrass (Echinochloa crus-galli); test: as above
Summary of the method: as §1

[5] = tested on: giant foxtail (Setaria faberii); test: as above
Summary of the method: as §1

[6] = tested on: large (Lg) crabgrass (Digitaria sanguinalis); test: as above
Summary of the method: as §1

[7] = tested on: velvetleaf (Abutilon theophrasti); test: as above
Summary of the method: as §1

[8] = tested on: morningglory (Ipomoea spp.); test: as above
Summary of the method: as §1

[9] = tested on: blackgrass (Alopecurus myosuroides); test: Test C pre-/postemergence greenhouse test, plant response rating 0-100
Summary of the method: (§2)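 Plants were treated either at seeding (soil of loam and sand) or as 2–18 cm seedlings in a sphagnum peat mix, using test chemicals in a surfactant-containing non-phytotoxic solvent. Visual assessment relative to controls followed 13–15 days later.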

[10] = tested on: ragweed (common ragweed, Ambrosia elatior); test: as above
Summary of the method: as §2

[11] = tested on: large (Lg) crabgrass (Digitaria sanguinalis); test: as above
Summary of the method: as §2

[12] = tested on: velvetleaf (Abutilon theophrasti); test: as above
Summary of the method: as §2

[13] = tested on: morningglory (Ipomoea coccinea); test: as above
Summary of the method: as §2

[14] = Postemergence, 250 g ai/ha, scale 0 to 100
[15] = Postemergence, 500 g ai/ha, scale 0 to 100

Q: What does the source list for `CCOC(OCC)(c1cccs1)c1c[nH]nc1-c1cc(Cl)cc(Cl)c1` [Compound 27]?
A: Plant response rating (0 to 100 scale), Pigweed ([1]; Postemergence, 125 g ai/ha): 80; Plant response rating (0 to 100 scale), Pigweed ([1]; Postemergence, 500 g ai/ha): 100; Pigweed plant response rating (0 = no effect, 100 = complete control) ([1]; Preemergence, 125 g ai/ha): 100; Plant response rating (0 to 100 scale), Pigweed ([1]; Preemergence, 500 g ai/ha): 100; Plant response rating (0 to 100 scale), Corn ([2]; Postemergence, 125 g ai/ha): 0; Plant response rating (0 to 100 scale), Corn ([2]; Postemergence, 500 g ai/ha): 0; Corn plant response rating (0 = no effect, 100 = complete control) ([2]; Preemergence, 125 g ai/ha): 0; Plant response rating (0 to 100 scale), Corn ([2]; Preemergence, 500 g ai/ha): 0; Plant response rating (0 to 100 scale), Wheat ([3]; Postemergence, 125 g ai/ha): 0; Plant response rating (0 to 100 scale), Wheat ([3]; Postemergence, 500 g ai/ha): 0; Wheat plant response rating (0 = no effect, 100 = complete control) ([3]; Preemergence, 125 g ai/ha): 0; Plant response rating (0 to 100 scale), Wheat ([3]; Preemergence, 500 g ai/ha): 0; Plant response rating (0 to 100 scale), Barnyardgrass ([4]; Postemergence, 125 g ai/ha): 0; Plant response rating (0 to 100 scale), Barnyardgrass ([4]; Postemergence, 500 g ai/ha): 0; Barnyardgrass plant response rating (0 = no effect, 100 = complete control) ([4]; Preemergence, 125 g ai/ha): 0; Plant response rating (0 to 100 scale), Barnyardgrass ([4]; Preemergence, 500 g ai/ha): 0; Plant response rating (0 to 100 scale), Foxtail, Giant ([5]; Postemergence, 125 g ai/ha): 0; Plant response rating (0 to 100 scale), Foxtail, Giant ([5]; Postemergence, 500 g ai/ha): 0; Foxtail, Giant plant response rating (0 = no effect, 100 = complete control) ([5]; Preemergence, 125 g ai/ha): 0; Plant response rating (0 to 100 scale), Foxtail, Giant ([5]; Preemergence, 500 g ai/ha): 0; Plant response rating (0 to 100 scale), Crabgrass, Large ([6]; Postemergence, 125 g ai/ha): 0; Plant response rating (0 to 100 scale), Crabgrass, Large ([6]; Postemergence, 500 g ai/ha): 0; Crabgrass, Large plant response rating (0 = no effect, 100 = complete control) ([6]; Preemergence, 125 g ai/ha): 0; Plant response rating (0 to 100 scale), Crabgrass, Large ([6]; Preemergence, 500 g ai/ha): 0; Plant response rating (0 to 100 scale), Velvetleaf ([7]; Postemergence, 125 g ai/ha): 80; Plant response rating (0 to 100 scale), Velvetleaf ([7]; Postemergence, 500 g ai/ha): 90; Velvetleaf plant response rating (0 = no effect, 100 = complete control) ([7]; Preemergence, 125 g ai/ha): 80; Plant response rating (0 to 100 scale), Velvetleaf ([7]; Preemergence, 500 g ai/ha): 80; Plant response rating (0 to 100 scale), Morningglory ([8]; Postemergence, 125 g ai/ha): 0; Plant response rating (0 to 100 scale), Morningglory ([8]; Postemergence, 500 g ai/ha): 0; Morningglory plant response rating (0 = no effect, 100 = complete control) ([8]; Preemergence, 125 g ai/ha): 0; Plant response rating (0 to 100 scale), Morningglory ([8]; Preemergence, 500 g ai/ha): 0; Plant response rating (0 to 100), Blackgrass ([9]; Postemergence, 62 g ai/ha): 0; Plant response rating, Blackgrass ([9]; Postemergence, 125 g ai/ha, scale 0 to 100): 5; Plant response rating, Blackgrass [9, 14]: 0; Plant response rating, Blackgrass [9, 15]: 0; Plant response rating, Blackgrass ([9]; Preemergence, 62 g ai/ha): 20; Plant response rating, Blackgrass ([9]; Preemergence, 125 g ai/ha): 0; Plant response rating, Blackgrass ([9]; Preemergence, 250 g ai/ha): 50; Plant response rating, Blackgrass ([9]; Preemergence, 500 g ai/ha): 0; Plant response rating (0 to 100), Ragweed ([10]; Postemergence, 62 g ai/ha): 65; Plant response rating (0 to 100), Ragweed ([10]; Postemergence, 125 g ai/ha): 75; Plant response rating, Ragweed [10, 14]: 90; Plant response rating, Ragweed [10, 15]: 75; Plant response rating, Ragweed ([10]; Preemergence, 62 g ai/ha): 98; Plant response rating, Ragweed ([10]; Preemergence, 125 g ai/ha): 70; Plant response rating, Ragweed ([10]; Preemergence, 250 g ai/ha): 70; Plant response rating, Ragweed ([10]; Preemergence, 500 g ai/ha): 100; Plant response rating (0 to 100), Crabgrass, Large ([11]; Postemergence, 62 g ai/ha): 0; Plant response rating (0 to 100), Crabgrass, Large ([11]; Postemergence, 125 g ai/ha): 0; Plant response rating, Crabgrass, Large [11, 14]: 10; Plant response rating, Crabgrass, Large [11, 15]: 10; Plant response rating, Crabgrass, Large ([11]; Preemergence, 62 g ai/ha): 0; Plant response rating, Crabgrass, Large ([11]; Preemergence, 125 g ai/ha): 0; Plant response rating, Crabgrass, Large ([11]; Preemergence, 250 g ai/ha): 0; Plant response rating, Crabgrass, Large ([11]; Preemergence, 500 g ai/ha): 0; Plant response rating (0 to 100), Velvetleaf ([12]; Postemergence, 62 g ai/ha): 65; Plant response rating (0 to 100), Velvetleaf ([12]; Postemergence, 125 g ai/ha): 70; Plant response rating, Velvetleaf [12, 14]: 75; Plant response rating, Velvetleaf [12, 15]: 75; Plant response rating, Velvetleaf ([12]; Preemergence, 62 g ai/ha): 10; Plant response rating, Velvetleaf ([12]; Preemergence, 125 g ai/ha): 40; Plant response rating, Velvetleaf ([12]; Preemergence, 250 g ai/ha): 65; Plant response rating, Velvetleaf ([12]; Preemergence, 500 g ai/ha): 60; Plant response rating (0 to 100), Morningglory ([13]; Postemergence, 62 g ai/ha): 0; Plant response rating (0 to 100), Morningglory ([13]; Postemergence, 125 g ai/ha): 0; Plant response rating, Morningglory [13, 14]: 0; Plant response rating, Morningglory [13, 15]: 55; Plant response rating, Morningglory ([13]; Preemergence, 62 g ai/ha): 0; Plant response rating, Morningglory ([13]; Preemergence, 125 g ai/ha): 0; Plant response rating, Morningglory ([13]; Preemergence, 250 g ai/ha): 0; Plant response rating, Morningglory ([13]; Preemergence, 500 g ai/ha): 0
